Measurements taken from ChEMBL document CHEMBL1146935, “A novel series of urea-based peptidomimetic calpain inhibitors” (Bioorg Med Chem Lett, 2006).

Key:
[1] = target: T1, Calpain-1 catalytic subunit (Sus scrofa, UniProt P35750); test: Inhibition of mu calpain in porcine erythrocyte
T1 sequence (P35750 whole entry): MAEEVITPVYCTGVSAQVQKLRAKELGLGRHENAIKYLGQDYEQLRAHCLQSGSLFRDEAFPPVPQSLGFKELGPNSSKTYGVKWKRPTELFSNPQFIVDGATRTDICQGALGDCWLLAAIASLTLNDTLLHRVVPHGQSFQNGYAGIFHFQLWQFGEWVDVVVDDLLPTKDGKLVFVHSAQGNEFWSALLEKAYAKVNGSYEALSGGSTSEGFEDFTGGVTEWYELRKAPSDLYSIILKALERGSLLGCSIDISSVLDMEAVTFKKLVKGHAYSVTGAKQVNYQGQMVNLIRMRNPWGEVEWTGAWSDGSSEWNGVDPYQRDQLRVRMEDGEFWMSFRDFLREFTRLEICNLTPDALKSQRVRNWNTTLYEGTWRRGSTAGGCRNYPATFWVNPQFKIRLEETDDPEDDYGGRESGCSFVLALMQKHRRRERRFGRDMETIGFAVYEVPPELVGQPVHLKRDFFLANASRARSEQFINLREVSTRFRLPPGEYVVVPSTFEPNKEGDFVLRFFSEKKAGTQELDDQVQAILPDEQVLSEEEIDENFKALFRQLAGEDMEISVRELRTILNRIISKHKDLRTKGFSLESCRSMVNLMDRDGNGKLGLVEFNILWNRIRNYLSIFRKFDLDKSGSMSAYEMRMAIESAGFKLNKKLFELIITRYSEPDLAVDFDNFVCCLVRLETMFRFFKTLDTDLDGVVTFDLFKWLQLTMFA

[2] = species on record: Sus scrofa; test: Inhibition of mu calpain in porcine erythrocyte at 100 uM
[3] = target: Cathepsin B (Homo sapiens, UniProt P07858); test: Inhibition of cathepsin B from human brain
[4] = Selectivity for porcine mu calpain over human cathepsin B

SMILES | Ki [1] | inhibition [2] | Ki [3] | Ratio Ki [4]
CC(C)N(Cc1ccccc1)C(=O)N[C@H](C=O)Cc1ccccc1 | 6820 nM |  |  | 
CC(C)N(CCc1ccccc1)C(=O)N[C@H](C=O)Cc1ccccc1 | 2350 nM |  |  | 
CC(C)N(CCCCc1ccccc1)C(=O)N[C@H](C=O)Cc1ccccc1 | 400 nM |  |  | 
CC(C)CC(C(=O)N[C@H](C=O)Cc1ccccc1)C(=O)OCc1ccccc1 (some centres not stated) | 15 nM |  | 120 nM | 8
CC(C)C(C(=O)N[C@H](C=O)Cc1ccccc1)C(=O)OCc1ccccc1 (some centres not stated) | 10 nM |  | 20 nM | 2
CC(C)N(CCCc1ccccc1)C(=O)N[C@H](C=O)Cc1ccccc1 | 1160 nM |  |  | 

More lines, now with the values ahead:

Ki [1] | inhibition [2] | Ki [3] | Ratio Ki [4] | SMILES
 | 13% |  |  | CC(C)NC(=O)N[C@H](C=O)Cc1ccccc1
6690 nM |  |  |  | CN(CCOCc1ccccc1)C(=O)N[C@H](C=O)Cc1ccccc1
6650 nM |  |  |  | O=C[C@H](Cc1ccccc1)NC(=O)N(CCOCc1ccccc1)Cc1ccccc1
9270 nM |  |  |  | CC(C)CN(CCOCc1ccccc1)C(=O)N[C@H](C=O)C(C)C
88700 nM |  |  |  | CC(C)CN(CCOCc1ccccc1)C(=O)NCC=O
230 nM |  | 22100 nM | 96.1 | CC(C)N(CCOCc1ccccc1)C(=O)N[C@H](C=O)Cc1ccccc1
1150 nM |  |  |  | CCN(CCOCc1ccccc1)C(=O)N[C@H](C=O)Cc1ccccc1
150 nM |  | 33300 nM | 222 | CC(C)CN(CCOCc1ccccc1)C(=O)N[C@H](C=O)Cc1ccccc1
